Laboratory results reported in PubChem BioAssay (NCI).
“And” between values parts separate entries of the source, which are not always exact repeats. Equal entries are not always repeated.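 96-well plates; 48 h exposure; 5 concentrations. Endpoints by linear interpolation between flanking doses. Not reached: highest tested concentration assigned. GI50 marks 50% less growth. TGI is the concentration that stops growth completely.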

Assays:
Experiment in all cases: growth of human tumour cells (NCI), 48 h; in the data active = GI50 below about 0.43 µM; inactive = the rest
SNB-75 CNS = system: SNB-75 CNS
MOLT-4 leukemia = system: MOLT-4 leukemia
HOP-62 NSCLC = system: HOP-62 NSCLC
HCT-15 colon = system: HCT-15 colon
SW-620 colon = system: SW-620 colon
IGROV1 ovarian = system: IGROV1 ovarian
MDA-N = system: MDA-N
HT29 colon = system: HT29 colon
ACHN renal = system: ACHN renal
KM12 colon = system: KM12 colon
HOP-92 NSCLC = system: HOP-92 NSCLC
K-562 leukemia = system: K-562 leukemia
MDA-MB-231 breast = system: MDA-MB-231 breast
SK-MEL-2 melanoma = system: SK-MEL-2 melanoma
SK-MEL-28 melanoma = system: SK-MEL-28 melanoma
OVCAR-5 ovarian = system: OVCAR-5 ovarian
SF-268 CNS = system: SF-268 CNS
A498 renal = system: A498 renal
OVCAR-4 ovarian = system: OVCAR-4 ovarian
NCI-H226 lung = system: NCI-H226 lung
LOX IMVI melanoma = system: LOX IMVI melanoma
U251 CNS = system: U251 CNS
M14 melanoma = system: M14 melanoma
CCRF-CEM leukemia = system: CCRF-CEM leukemia
CAKI-1 renal = system: CAKI-1 renal
RPMI-8226 leukemia = system: RPMI-8226 leukemia
UACC-62 melanoma = system: UACC-62 melanoma
RXF 393 renal = system: RXF 393 renal
PC-3 prostate = system: PC-3 prostate
TK-10 renal = system: TK-10 renal
SN12C renal = system: SN12C renal
EKVX NSCLC = system: EKVX NSCLC
HCT-116 colon = system: HCT-116 colon
A549 NSCLC = system: A549 NSCLC
SNB-19 CNS = system: SNB-19 CNS
OVCAR-8 ovarian = system: OVCAR-8 ovarian
UACC-257 melanoma = system: UACC-257 melanoma
HS 578T breast = system: HS 578T breast
786-0 renal = system: 786-0 renal
SR leukemia = system: SR leukemia
MCF7 breast = system: MCF7 breast
UO-31 renal = system: UO-31 renal
SK-MEL-5 melanoma = system: SK-MEL-5 melanoma
DU-145 prostate = system: DU-145 prostate
MDA-MB-435 = system: MDA-MB-435
SK-OV-3 ovarian = system: SK-OV-3 ovarian
NCI/ADR-RES ovarian = system: NCI/ADR-RES ovarian
SF-539 CNS = system: SF-539 CNS
BT-549 breast = system: BT-549 breast
OVCAR-3 ovarian = system: OVCAR-3 ovarian
HCC-2998 colon = system: HCC-2998 colon
NCI-H460 lung = system: NCI-H460 lung
COLO 205 colon = system: COLO 205 colon
NCI-H522 lung = system: NCI-H522 lung
MALME-3M melanoma = system: MALME-3M melanoma
HL-60(TB) leukemia = system: HL-60(TB) leukemia
SF-295 CNS = system: SF-295 CNS
T-47D breast = system: T-47D breast
NCI-H23 lung = system: NCI-H23 lung

COc1ccc2c(c1)/c(=C/c1ccc(N(C)C)cc1)c1cc(-c3ccccc3)[n+](C)n12
1.21 µM: TGI (SNB-19 CNS)
1.61 µM: TGI (SK-MEL-2 melanoma)
1.47 µM: TGI (MDA-MB-435)
0.44 µM: TGI (OVCAR-8 ovarian) | TGI (HS 578T breast)
0.543 µM: TGI (IGROV1 ovarian)
1.24 µM: TGI (SN12C renal)
> 100 µM: TGI (NCI/ADR-RES ovarian)
2.51 µM and 1.84 µM: TGI (DU-145 prostate)
active: GI50 (MOLT-4 leukemia) 0.142 µM | GI50 (HT29 colon) 0.0753 µM | GI50 (K-562 leukemia) 0.0487 µM | GI50 (CCRF-CEM leukemia) 0.0859 µM | GI50 (RPMI-8226 leukemia) 0.0555 µM | GI50 (DU-145 prostate) 0.108 µM
1.51 µM: TGI (LOX IMVI melanoma)
0.566 µM and 0.982 µM: TGI (HT29 colon)
4.02 µM: TGI (HCT-15 colon)
3.28 µM: TGI (UO-31 renal)
0.784 µM: TGI (HOP-92 NSCLC)
0.785 µM: TGI (NCI-H226 lung)
2.31 µM: TGI (SK-MEL-28 melanoma)
1.97 µM: TGI (SW-620 colon)
2.59 µM: TGI (HCT-116 colon)
1.36 µM: TGI (M14 melanoma)
1.48 µM: TGI (MDA-N)
0.327 µM: TGI (SNB-75 CNS)
5.07 µM: TGI (A549 NSCLC)
2.84 µM: TGI (SR leukemia)
1.42 µM: TGI (EKVX NSCLC)
2.19 µM: TGI (UACC-257 melanoma)
1.06 µM: TGI (SK-MEL-5 melanoma)
1.64 µM: TGI (RXF 393 renal)
1.1 µM: TGI (SF-268 CNS)
1.09 µM: TGI (PC-3 prostate)
3.17 µM: TGI (OVCAR-5 ovarian)
5.32 µM and 6.29 µM: TGI (TK-10 renal)
2.01 µM: TGI (UACC-62 melanoma)
1.08 µM: TGI (MDA-MB-231 breast)
2.71 µM: TGI (HOP-62 NSCLC)
7.11 µM: TGI (MCF7 breast)
1.71 µM: TGI (KM12 colon)
1.98 µM: TGI (SK-OV-3 ovarian)
1.6 µM: TGI (U251 CNS) | TGI (786-0 renal)
2.75 µM: TGI (A498 renal)
5.68 µM: TGI (ACHN renal)
inactive: GI50 (TK-10 renal) 0.711 µM
2.83 µM: TGI (OVCAR-4 ovarian)
4.92 µM: TGI (MOLT-4 leukemia)
5.64 µM: TGI (CAKI-1 renal)

COc1cc(S(C)(=O)=O)ccc1Nc1nc2ccc(-c3ccc(NC(=O)[C@H](C)c4ccc(F)cc4)cc3)cn2n1
active: GI50 (HCT-15 colon) 0.075 µM | GI50 (NCI-H460 lung) 0.0821 µM | GI50 (COLO 205 colon) 0.0838 µM | GI50 (HCT-116 colon) 0.0828 µM | GI50 (SR leukemia) 0.211 µM | GI50 (SK-MEL-5 melanoma) 0.4 µM
inactive: GI50 (SNB-75 CNS) 47.1 µM | GI50 (MOLT-4 leukemia) 1.18 µM | GI50 (HOP-62 NSCLC) > 100 µM | GI50 (SW-620 colon) 17.1 µM | GI50 (IGROV1 ovarian) > 100 µM | GI50 (ACHN renal) > 83.5 µM | GI50 (SF-539 CNS) > 39.8 µM | GI50 (KM12 colon) > 72.4 µM | GI50 (HOP-92 NSCLC) > 51.1 µM | GI50 (BT-549 breast) > 63.8 µM | GI50 (K-562 leukemia) > 78.7 µM | GI50 (MDA-MB-231 breast) 26.6 µM | GI50 (SK-MEL-2 melanoma) > 100 µM | GI50 (OVCAR-3 ovarian) > 100 µM | GI50 (HCC-2998 colon) > 100 µM | GI50 (SK-MEL-28 melanoma) > 100 µM | GI50 (OVCAR-5 ovarian) > 100 µM | GI50 (SF-268 CNS) > 100 µM | GI50 (A498 renal) > 100 µM | GI50 (OVCAR-4 ovarian) > 100 µM | GI50 (NCI-H226 lung) > 100 µM | GI50 (LOX IMVI melanoma) 10.6 µM | GI50 (U251 CNS) 35.9 µM | GI50 (M14 melanoma) 33.2 µM | GI50 (CCRF-CEM leukemia) 0.62 µM | GI50 (NCI-H522 lung) > 100 µM | GI50 (CAKI-1 renal) > 100 µM | GI50 (RPMI-8226 leukemia) 0.847 µM | GI50 (UACC-62 melanoma) 75.6 µM | GI50 (RXF 393 renal) > 48.5 µM | GI50 (PC-3 prostate) 4.29 µM | GI50 (TK-10 renal) > 100 µM | GI50 (SN12C renal) > 100 µM | GI50 (EKVX NSCLC) > 100 µM | GI50 (A549 NSCLC) 98.5 µM | GI50 (MALME-3M melanoma) > 100 µM | GI50 (SNB-19 CNS) > 100 µM | GI50 (OVCAR-8 ovarian) 9.36 µM | GI50 (HL-60(TB) leukemia) 12.9 µM | GI50 (UACC-257 melanoma) > 100 µM | GI50 (SF-295 CNS) > 100 µM | GI50 (HS 578T breast) > 63.4 µM | GI50 (786-0 renal) > 100 µM | GI50 (MCF7 breast) 0.749 µM | GI50 (T-47D breast) 0.596 µM | GI50 (UO-31 renal) > 100 µM | GI50 (DU-145 prostate) > 100 µM | GI50 (MDA-MB-435) > 100 µM | GI50 (SK-OV-3 ovarian) > 100 µM | GI50 (NCI/ADR-RES ovarian) > 20.6 µM | GI50 (NCI-H23 lung) > 100 µM
> 100 µM: TGI (SNB-75 CNS) | TGI (MOLT-4 leukemia) | TGI (HOP-62 NSCLC) | TGI (HCT-15 colon) | TGI (SW-620 colon) | TGI (IGROV1 ovarian) | TGI (HT29 colon) | TGI (ACHN renal) | TGI (SF-539 CNS) | TGI (KM12 colon) | TGI (HOP-92 NSCLC) | TGI (BT-549 breast) | TGI (K-562 leukemia) | TGI (MDA-MB-231 breast) | TGI (SK-MEL-2 melanoma) | TGI (OVCAR-3 ovarian) | TGI (HCC-2998 colon) | TGI (SK-MEL-28 melanoma) | TGI (NCI-H460 lung) | TGI (OVCAR-5 ovarian) | TGI (SF-268 CNS) | TGI (A498 renal) | TGI (OVCAR-4 ovarian) | TGI (NCI-H226 lung) | TGI (LOX IMVI melanoma) | TGI (COLO 205 colon) | TGI (U251 CNS) | TGI (M14 melanoma) | TGI (CCRF-CEM leukemia) | TGI (NCI-H522 lung) | TGI (CAKI-1 renal) | TGI (RPMI-8226 leukemia) | TGI (UACC-62 melanoma) | TGI (RXF 393 renal) | TGI (PC-3 prostate) | TGI (TK-10 renal) | TGI (SN12C renal) | TGI (EKVX NSCLC) | TGI (HCT-116 colon) | TGI (A549 NSCLC) | TGI (MALME-3M melanoma) | TGI (SNB-19 CNS) | TGI (OVCAR-8 ovarian) | TGI (HL-60(TB) leukemia) | TGI (UACC-257 melanoma) | TGI (SF-295 CNS) | TGI (HS 578T breast) | TGI (786-0 renal) | TGI (SR leukemia) | TGI (MCF7 breast) | TGI (T-47D breast) | TGI (UO-31 renal) | TGI (SK-MEL-5 melanoma) | TGI (DU-145 prostate) | TGI (MDA-MB-435) | TGI (SK-OV-3 ovarian) | TGI (NCI/ADR-RES ovarian) | TGI (NCI-H23 lung)
